Usually Ki stands for the equilibrium dissociation constant of an inhibitor or competing ligand from its target. As usually defined, the IC50 is the point on the concentration scale where inhibition reaches its midpoint.

Here are results for 12 molecules from publication PMC3234165 (Biochemistry, 2011).

Series [1] deals with pure guinea pig sigma-1 receptor (Cavia porcellus, UniProt Q60492). Briefly: Competitive displacement of [3H]-. It counts as binding.
Series [2] has as its target Kv1.4 potassium channel (Rattus norvegicus, UniProt P15385+Q9R0C9). Briefly: Whole cell patch clamp, HEK-293 cells co-expressing Kv1.4 and sigma-1 receptor. The series is classed as cell-based. Conditions: for average inhibition of the Kv1.4 potassium channel: concentrations up to 300 μM, HEK-293 with Kv1.4 and sigma-1 receptor. A general note: The patch-clamp technique gives a direct electrical read-out from membranes.

Series [3] has as its target T1, sigma-2 receptor (sigma-2 sites) (Rattus norvegicus, UniProt Q5U3Y7).
T1 sequence (Q5U3Y7 1-176): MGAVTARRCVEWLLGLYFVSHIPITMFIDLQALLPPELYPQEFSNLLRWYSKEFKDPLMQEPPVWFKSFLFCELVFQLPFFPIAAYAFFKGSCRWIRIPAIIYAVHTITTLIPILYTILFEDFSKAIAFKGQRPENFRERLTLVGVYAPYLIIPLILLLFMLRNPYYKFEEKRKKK
Briefly: Competitive displacement of [3H]-DTG binding, rat liver membranes. Conditions: for KI sigma-2 sites: rat liver membranes in the presence of 100 nM (+)-pentazocine, [3H]-DTG; for sigma-2/sigma-1: ratio from the KI value of sigma-1 and sigma-2 sites (membranes). In general terms: In a radioligand displacement assay an active substance lowers the binding of a labelled ligand.

Series [4] deals with 5HT1B (serotonin receptor subtype 1B) (Homo sapiens, UniProt P28222). Briefly: NIMH PDSP secondary binding assay.
For series [5], the target named is β-3 (β-adrenergic receptor subtype 3) (Homo sapiens, UniProt P13945). Briefly: NIMH PDSP secondary binding assay.
Series [6] addresses M4 (muscarinic acetylcholine receptor type 4) (Homo sapiens, UniProt P08173). Briefly: NIMH PDSP secondary binding assay.
Series [7] relates to SK-OV-3. The series can be described thus: Multiplex cytotoxicity assay. It counts as cell-based. Conditions: Homo sapiens, SK-OV-3, read-out: IC50 SK-OV-3.
For series [8], the system named is Du145. The series can be described thus: Multiplex cytotoxicity assay. It counts as cell-based. Conditions: Homo sapiens, DU-145, read-out: IC50 Du145.
Series [9] has as its system HT-29. The series can be described thus: Multiplex cytotoxicity assay. The series is classed as cell-based. Conditions: Homo sapiens, HT-29, read-out: IC50 HT-29.
In series [10] the target is T2, 5HT1A (serotonin receptor subtype 1A) (Homo sapiens, UniProt P08908).
T2 sequence (P08908 1-422): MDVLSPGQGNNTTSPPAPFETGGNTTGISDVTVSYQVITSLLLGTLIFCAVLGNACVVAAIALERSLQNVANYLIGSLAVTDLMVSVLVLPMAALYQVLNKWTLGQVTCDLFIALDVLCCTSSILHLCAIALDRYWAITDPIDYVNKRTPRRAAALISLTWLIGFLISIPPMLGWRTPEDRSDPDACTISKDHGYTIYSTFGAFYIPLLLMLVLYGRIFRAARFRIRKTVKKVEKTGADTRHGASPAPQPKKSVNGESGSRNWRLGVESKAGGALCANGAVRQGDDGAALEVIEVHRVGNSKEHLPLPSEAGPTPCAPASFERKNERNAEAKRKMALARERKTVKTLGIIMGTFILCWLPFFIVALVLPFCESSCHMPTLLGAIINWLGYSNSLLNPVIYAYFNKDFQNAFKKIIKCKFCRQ
The series can be described thus: NIMH PDSP secondary binding assay. Conditions: KI 5HT1A.

Series [11] deals with MCF-10A. Briefly: Multiplex cytotoxicity assay. The series is classed as cell-based. Conditions: Homo sapiens, read-out: IC50 MCF-10A.
Series [12] has as its target NET (norepinephrine transporter) (Homo sapiens, UniProt P23975). Briefly: NIMH PDSP secondary binding assay.
Series [13] has as its target T3, α-1A (α-adrenergic receptor subtype 1A) (Homo sapiens, UniProt P35348).
T3 sequence (P35348 1-466): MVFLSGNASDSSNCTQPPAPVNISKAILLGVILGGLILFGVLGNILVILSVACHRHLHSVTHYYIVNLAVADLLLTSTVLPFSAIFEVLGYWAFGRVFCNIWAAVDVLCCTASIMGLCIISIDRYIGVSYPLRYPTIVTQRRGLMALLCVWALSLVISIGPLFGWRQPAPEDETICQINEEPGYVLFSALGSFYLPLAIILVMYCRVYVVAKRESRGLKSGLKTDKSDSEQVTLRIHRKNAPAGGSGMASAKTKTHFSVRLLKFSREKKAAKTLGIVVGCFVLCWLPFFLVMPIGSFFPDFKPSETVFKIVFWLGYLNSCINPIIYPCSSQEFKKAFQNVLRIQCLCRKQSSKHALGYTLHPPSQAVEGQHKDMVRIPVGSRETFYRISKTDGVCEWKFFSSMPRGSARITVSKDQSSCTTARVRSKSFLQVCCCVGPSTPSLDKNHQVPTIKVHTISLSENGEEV
Briefly: NIMH PDSP secondary binding assay.

The subject of series [14] is caspases 3/7, 8, and 9. Briefly: Caspase activation potential. It counts as cell-based. Conditions: data not shown.
The test system of series [15] is SF-268. Briefly: Multiplex cytotoxicity assay. The series is classed as cell-based. Conditions: Homo sapiens, SF-268, read-out: IC50 SF-268.
In series [16] the test system is MDA-MB-231. Briefly: Multiplex cytotoxicity assay. The series is classed as cell-based. As to conditions: Homo sapiens, MDA-MB-231, read-out: IC50 MDA-MB-231.
Series [17] deals with sigma-1 receptor (Cavia porcellus, UniProt Q60492). Briefly: Saturation binding of [3H]-. Set-up: species or system guinea pig. Conditions: GPLM; increasing concentrations of 2b.
The target of series [18] is Sig-1R, sigma-1 receptor (Rattus norvegicus, UniProt Q9R0C9). The series can be described thus: NIMH PDSP secondary binding assay.
Series [19] has as its target M5 (muscarinic acetylcholine receptor type 5) (Homo sapiens, UniProt P08912). The series can be described thus: NIMH PDSP secondary binding assay.
For series [20], the target named is SERT (serotonin transporter) (Homo sapiens, UniProt P31645). Briefly: NIMH PDSP secondary binding assay.
Series [21] has as its system MCF-7. The series can be described thus: Multiplex cytotoxicity assay. The series is classed as cell-based. As to conditions: Homo sapiens, MCF7, read-out: IC50 MCF-7.
The target in series [22] is D1 (dopamine receptor type 1) (Homo sapiens, UniProt P21728). Briefly: NIMH PDSP secondary binding assay.
Series [23] relates to H1299. Briefly: Multiplex cytotoxicity assay. The series is classed as cell-based. As to conditions: Homo sapiens, NCI-H1299, read-out: IC50 H1299.
In series [24] the target is β-2 (β-adrenergic receptor subtype 2) (Homo sapiens, UniProt P07550). The series can be described thus: NIMH PDSP secondary binding assay.
Series [25] has as its system HCT-15. The series can be described thus: Multiplex cytotoxicity assay. The series is classed as cell-based. As to conditions: Homo sapiens, HCT-15, read-out: IC50 HCT-15.
Series [26] has as its target M3 (muscarinic acetylcholine receptor type 3) (Homo sapiens, UniProt P20309). Briefly: NIMH PDSP secondary binding assay.
Series [27] relates to A549. Briefly: Multiplex cytotoxicity assay. It counts as cell-based. As to conditions: Homo sapiens, A549, read-out: IC50 A549.
The target of series [28] is H3 (histamine receptor type 3) (Homo sapiens, UniProt Q9Y5N1). The series can be described thus: NIMH PDSP secondary binding assay.
Series [29] has as its system NCI-H460. The series can be described thus: Multiplex cytotoxicity assay. The series is classed as cell-based. As to conditions: Homo sapiens, NCI-H460, read-out: IC50 NCI-H460.
Series [30] has as its target 5HT7 (serotonin receptor subtype 7) (Homo sapiens, UniProt P34969). The series can be described thus: NIMH PDSP secondary binding assay.
Series [31] addresses H2 (histamine receptor type 2) (Homo sapiens, UniProt P25021). The series can be described thus: NIMH PDSP secondary binding assay.
Series [32] addresses 5HT2B (serotonin receptor subtype 2B) (Homo sapiens, UniProt P41595). Briefly: NIMH PDSP secondary binding assay.
Series [33] has as its target T4, Sig-2R, sigma-2 receptor (Rattus norvegicus, UniProt Q5U3Y7).
T4 sequence (Q5U3Y7 1-176): T1 sequence (Q5U3Y7 1-176)
Briefly: NIMH PDSP secondary binding assay.

Series [34] has as its system tumors grown from the mouse mammary adenocarcinoma cell line 66. Conditions: nude mice with tumors from mouse mammary adenocarcinoma cell line 66; cited from earlier work.
The test system of series [35] is caspases 3/7. The series can be described thus: Caspase activation by rimcazole in cancer cell lines. It counts as cell-based. As to conditions: any cancer cell lines tested, including MCF-7.
For series [36], the system named is caspases 3/7. As to conditions: MCF-7 and MDA MB 468 mammary carcinoma; ref Spruce et al. 2004; cited from earlier work.
[37] abbreviates: read-out: KI pure sigma-1 receptor, Table 1, [3H]-(+)-pentazocine displacement.

Read-outs that look alike come from different tables or passages of the source.

Sequence of Kv1.4 potassium channel (P15385 whole entry): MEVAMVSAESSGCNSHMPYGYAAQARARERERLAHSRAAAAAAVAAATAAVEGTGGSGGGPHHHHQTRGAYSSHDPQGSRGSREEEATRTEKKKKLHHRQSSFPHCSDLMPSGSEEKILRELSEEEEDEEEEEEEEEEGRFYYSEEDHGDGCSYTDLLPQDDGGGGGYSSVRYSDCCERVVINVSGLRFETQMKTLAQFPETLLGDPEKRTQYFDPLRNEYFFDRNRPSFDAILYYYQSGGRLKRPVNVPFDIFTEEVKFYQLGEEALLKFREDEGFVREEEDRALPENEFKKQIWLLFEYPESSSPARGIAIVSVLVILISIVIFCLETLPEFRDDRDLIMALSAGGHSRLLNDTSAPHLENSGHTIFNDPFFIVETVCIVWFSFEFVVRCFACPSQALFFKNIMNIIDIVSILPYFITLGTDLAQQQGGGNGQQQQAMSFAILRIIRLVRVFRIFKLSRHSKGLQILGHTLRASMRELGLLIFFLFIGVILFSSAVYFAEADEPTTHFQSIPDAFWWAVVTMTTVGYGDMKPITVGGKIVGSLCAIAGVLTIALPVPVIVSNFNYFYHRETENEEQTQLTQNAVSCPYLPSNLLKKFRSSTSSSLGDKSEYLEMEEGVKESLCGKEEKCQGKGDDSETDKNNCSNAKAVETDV
Sequence of Kv1.4 potassium channel (Q9R0C9 whole entry): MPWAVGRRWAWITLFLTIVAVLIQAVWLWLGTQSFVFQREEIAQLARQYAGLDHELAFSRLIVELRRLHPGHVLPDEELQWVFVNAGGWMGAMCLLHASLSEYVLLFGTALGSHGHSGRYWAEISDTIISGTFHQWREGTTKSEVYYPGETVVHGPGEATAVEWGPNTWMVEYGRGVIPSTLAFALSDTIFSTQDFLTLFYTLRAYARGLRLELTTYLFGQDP
Sequence of pure guinea pig sigma-1 receptor (Q60492 whole entry): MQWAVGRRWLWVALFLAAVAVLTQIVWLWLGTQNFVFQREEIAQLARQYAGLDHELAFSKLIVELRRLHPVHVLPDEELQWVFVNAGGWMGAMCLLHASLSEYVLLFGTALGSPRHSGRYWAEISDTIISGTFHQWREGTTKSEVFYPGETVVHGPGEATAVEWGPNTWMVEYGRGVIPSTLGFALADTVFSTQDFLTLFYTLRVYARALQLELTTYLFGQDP
Sequence of H2 (histamine receptor type 2) (P25021 whole entry): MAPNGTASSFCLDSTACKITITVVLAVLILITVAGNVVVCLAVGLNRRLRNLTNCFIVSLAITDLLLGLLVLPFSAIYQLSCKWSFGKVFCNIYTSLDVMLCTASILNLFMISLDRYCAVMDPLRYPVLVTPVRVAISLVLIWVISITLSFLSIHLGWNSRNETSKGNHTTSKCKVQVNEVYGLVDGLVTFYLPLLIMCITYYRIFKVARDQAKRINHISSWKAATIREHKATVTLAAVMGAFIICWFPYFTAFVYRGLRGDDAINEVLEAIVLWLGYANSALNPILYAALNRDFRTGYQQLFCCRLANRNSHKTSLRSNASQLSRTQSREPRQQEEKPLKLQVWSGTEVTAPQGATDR
Sequence of 5HT2B (serotonin receptor subtype 2B) (P41595 whole entry, species assumed): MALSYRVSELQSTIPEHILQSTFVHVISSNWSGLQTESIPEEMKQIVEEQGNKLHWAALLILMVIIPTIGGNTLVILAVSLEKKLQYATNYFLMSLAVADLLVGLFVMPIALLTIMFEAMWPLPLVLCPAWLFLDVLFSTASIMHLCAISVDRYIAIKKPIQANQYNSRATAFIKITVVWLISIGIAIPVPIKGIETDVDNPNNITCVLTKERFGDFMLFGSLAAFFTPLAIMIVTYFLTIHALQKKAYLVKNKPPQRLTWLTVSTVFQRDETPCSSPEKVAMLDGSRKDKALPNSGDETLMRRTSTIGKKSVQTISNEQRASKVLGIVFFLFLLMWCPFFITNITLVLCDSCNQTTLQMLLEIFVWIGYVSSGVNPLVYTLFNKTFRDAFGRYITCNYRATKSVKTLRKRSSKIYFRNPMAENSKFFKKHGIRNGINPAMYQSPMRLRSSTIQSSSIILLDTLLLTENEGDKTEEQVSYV
Sequence of 5HT1B (serotonin receptor subtype 1B) (P28222 whole entry, species assumed): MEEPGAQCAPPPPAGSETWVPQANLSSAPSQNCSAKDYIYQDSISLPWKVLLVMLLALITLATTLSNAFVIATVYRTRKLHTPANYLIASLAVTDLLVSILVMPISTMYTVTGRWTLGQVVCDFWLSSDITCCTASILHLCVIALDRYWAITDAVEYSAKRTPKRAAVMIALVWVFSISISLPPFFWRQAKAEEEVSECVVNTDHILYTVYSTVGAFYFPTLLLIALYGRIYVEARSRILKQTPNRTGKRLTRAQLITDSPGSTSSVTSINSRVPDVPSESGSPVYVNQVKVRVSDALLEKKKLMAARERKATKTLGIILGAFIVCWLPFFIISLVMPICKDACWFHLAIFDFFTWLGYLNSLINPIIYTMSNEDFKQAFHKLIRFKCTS
Sequence of β-3 (β-adrenergic receptor subtype 3) (P13945 whole entry): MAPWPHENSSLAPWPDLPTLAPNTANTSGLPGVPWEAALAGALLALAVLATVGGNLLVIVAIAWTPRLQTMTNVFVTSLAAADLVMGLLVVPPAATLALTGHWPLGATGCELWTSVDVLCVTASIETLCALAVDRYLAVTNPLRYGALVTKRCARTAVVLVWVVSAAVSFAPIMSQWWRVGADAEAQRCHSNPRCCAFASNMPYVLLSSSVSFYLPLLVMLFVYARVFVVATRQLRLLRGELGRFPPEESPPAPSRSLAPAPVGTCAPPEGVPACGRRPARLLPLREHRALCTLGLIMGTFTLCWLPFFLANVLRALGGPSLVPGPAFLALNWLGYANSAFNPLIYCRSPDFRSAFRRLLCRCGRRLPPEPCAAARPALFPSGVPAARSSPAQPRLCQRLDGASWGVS
Sequence of D1 (dopamine receptor type 1) (P21728 whole entry): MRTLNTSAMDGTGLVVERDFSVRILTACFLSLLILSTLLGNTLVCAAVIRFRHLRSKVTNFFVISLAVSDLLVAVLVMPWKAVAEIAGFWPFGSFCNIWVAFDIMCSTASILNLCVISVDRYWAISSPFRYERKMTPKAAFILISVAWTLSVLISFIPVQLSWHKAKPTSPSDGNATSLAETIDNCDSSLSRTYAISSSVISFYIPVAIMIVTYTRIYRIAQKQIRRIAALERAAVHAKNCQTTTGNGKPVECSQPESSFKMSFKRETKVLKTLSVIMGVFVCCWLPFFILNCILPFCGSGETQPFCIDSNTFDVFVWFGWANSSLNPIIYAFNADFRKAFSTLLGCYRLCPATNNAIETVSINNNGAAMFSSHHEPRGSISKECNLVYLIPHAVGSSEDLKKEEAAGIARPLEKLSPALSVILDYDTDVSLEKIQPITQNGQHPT
Sequence of M5 (muscarinic acetylcholine receptor type 5) (P08912 whole entry): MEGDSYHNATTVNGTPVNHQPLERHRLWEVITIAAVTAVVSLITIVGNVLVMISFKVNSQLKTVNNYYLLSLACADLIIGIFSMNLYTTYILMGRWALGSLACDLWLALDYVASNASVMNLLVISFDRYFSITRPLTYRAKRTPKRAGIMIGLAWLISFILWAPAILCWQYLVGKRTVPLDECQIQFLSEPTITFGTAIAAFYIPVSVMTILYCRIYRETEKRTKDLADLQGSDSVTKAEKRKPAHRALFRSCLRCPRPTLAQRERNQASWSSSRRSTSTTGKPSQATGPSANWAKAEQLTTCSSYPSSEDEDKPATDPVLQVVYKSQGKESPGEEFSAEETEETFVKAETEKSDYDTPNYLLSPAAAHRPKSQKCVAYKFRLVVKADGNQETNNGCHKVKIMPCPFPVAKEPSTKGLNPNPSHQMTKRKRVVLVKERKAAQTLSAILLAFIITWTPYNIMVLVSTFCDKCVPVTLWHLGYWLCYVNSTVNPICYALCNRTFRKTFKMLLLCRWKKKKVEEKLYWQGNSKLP
Sequence of M4 (muscarinic acetylcholine receptor type 4) (P08173 whole entry): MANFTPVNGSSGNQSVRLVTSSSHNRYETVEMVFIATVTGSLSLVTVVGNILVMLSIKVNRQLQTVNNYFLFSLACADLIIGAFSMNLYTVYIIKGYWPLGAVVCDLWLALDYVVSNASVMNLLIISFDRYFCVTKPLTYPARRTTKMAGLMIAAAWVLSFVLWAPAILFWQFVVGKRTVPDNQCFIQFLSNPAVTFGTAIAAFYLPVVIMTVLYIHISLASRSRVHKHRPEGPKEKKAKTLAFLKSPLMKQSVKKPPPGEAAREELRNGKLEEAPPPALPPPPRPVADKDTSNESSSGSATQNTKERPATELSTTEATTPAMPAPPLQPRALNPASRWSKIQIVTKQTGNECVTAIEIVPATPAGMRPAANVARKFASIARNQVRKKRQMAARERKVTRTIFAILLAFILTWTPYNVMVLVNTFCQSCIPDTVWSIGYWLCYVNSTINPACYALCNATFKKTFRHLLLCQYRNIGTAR
Sequence of M3 (muscarinic acetylcholine receptor type 3) (P20309 whole entry): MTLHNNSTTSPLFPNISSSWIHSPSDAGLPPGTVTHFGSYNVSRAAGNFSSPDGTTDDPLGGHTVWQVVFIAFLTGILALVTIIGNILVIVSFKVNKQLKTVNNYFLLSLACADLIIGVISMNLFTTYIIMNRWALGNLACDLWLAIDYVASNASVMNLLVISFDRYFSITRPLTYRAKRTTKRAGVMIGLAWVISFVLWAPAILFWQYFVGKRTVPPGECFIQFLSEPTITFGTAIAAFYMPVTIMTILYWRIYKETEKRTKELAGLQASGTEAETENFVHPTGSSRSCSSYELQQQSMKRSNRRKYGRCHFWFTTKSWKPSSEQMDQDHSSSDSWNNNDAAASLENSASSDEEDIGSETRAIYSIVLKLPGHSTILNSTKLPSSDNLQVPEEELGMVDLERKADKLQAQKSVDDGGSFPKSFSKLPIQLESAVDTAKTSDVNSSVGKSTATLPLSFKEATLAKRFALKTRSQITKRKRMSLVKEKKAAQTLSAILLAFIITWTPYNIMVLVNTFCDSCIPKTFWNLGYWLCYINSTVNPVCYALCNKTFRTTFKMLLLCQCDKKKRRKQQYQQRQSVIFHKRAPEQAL
Sequence of Sig-1R, sigma-1 receptor (Q9R0C9 whole entry): as the sequence (Q9R0C9 whole entry) above
Sequence of sigma-1 receptor (Q60492 whole entry): as the sequence (Q60492 whole entry) above

Molecule `CCCCNCCCc1ccccc1` [1a, N-(3-Phenylpropyl)butan-1-amine] returned a Ki in [1] of 0.2 ± 0.02 µM. In addition, in [2], the 50% inhibitory concentration (IC50) is 50 µM. Also, in [3], the “KI sigma-2 sites” value is listed as “nanomolar affinities” and the sigma-2/sigma-1 was 2.

Take `CCCCNCCCc1ccc([N+](=O)[O-])cc1` [1b, N-(3-(4-Nitrophenyl)propyl)butan-1-amine]: in series [3], the “KI sigma-2 sites” value is given as “nanomolar affinities” and the sigma-2/sigma-1 is 7.

As to `CCCCCCCNCCCc1ccc([N+](=O)[O-])cc1` [2b, N-(3-(4-Nitrophenyl)propyl)heptan-1-amine], the Ki is > 10 µM in series [4]; > 10 µM in series [5]; 1.4 µM in series [6]; 0.05 µM in series [10] (NIMH PDSP, [3H]8-OH-DPAT/0.5 nM); < 0.05 µM in [10] (text statement on secondary screen); 4 µM in [12]. For the same molecule, the inhibitory constant (Ki) in series [13] was > 10 µM; in series [18], 0.02 µM; in series [19], 0.3 µM; in series [20], 1.1 µM; in [22], > 10 µM; in series [24], > 10 µM. Further, the Ki was 1.1 µM in [26]; > 10 µM in series [28]; 0.9 µM in [30]; 0.6 µM in [31]; 1.1 µM in [32]; 0.014 µM in series [33]. Also, the IC50 in series [7] was found to be 73 ± 8 µM; in series [8], 29 ± 1 µM; in series [9], 30 ± 1 µM; in [11], 53 ± 6 µM; in series [15], 40 ± 3 µM; in series [16], 30 ± 2 µM. Also, the IC50 was 21 ± 1 µM in [21]; 28 ± 1 µM in [23]; > 100 µM in series [25]; 55 ± 5 µM in series [27]; 38 ± 4 µM in series [29]. Besides, the “activation of caspases 3/7, 8, and 9” value in series [14] was “did not activate”. Moreover, in [3], the “KI sigma-2 sites” value is “nanomolar affinities”. Further, the sigma-2/sigma-1 in series [3] is on record as 1. Also, in series [17], the “Bmax of [3H]-(+)-pentazocine in the presence of 2b” value was “unchanged”.

Regarding `CCCCCCCCCCCCCCCCCCNCCCc1ccccc1` [4a, N-(3-Phenylpropyl)octadecan-1-amine], in series [3], the “KI sigma-2 sites” value is on record as “micromolar affinities” and the sigma-2/sigma-1 amounted to 0.6.

Consider `CCCCCCCCCCCCCCCCCCNCCCc1ccc([N+](=O)[O-])cc1` [4b, N-(3-(4-Nitrophenyl)propyl)octadecan-1-amine], for which the Ki in [1] was 0.042 ± 0.007 µM. Moreover, in series [3], the “KI sigma-2 sites” value is given as “micromolar affinities” and the sigma-2/sigma-1 stood at 0.3.

As to `CCCCCN` [Amylamine], the Ki in series [1] (setting [37]) was 167 ± 35 µM.

Turning to `CCCCN` [Butylamine, reference compound], the Ki in [1] (setting [37]) came out at 477 ± 67 µM. In [2], the “average inhibition of the Kv1.4 potassium channel” value came to 21%.

As for `CCCCCCCN` [Heptylamine, reference compound], in series [2], the “average inhibition of the Kv1.4 potassium channel” value is listed as 15%.

For `CCCCCCCCN` [Octylamine], the Ki in series [1] (setting [37]) was found to be 6 ± 3 µM.

In the case of `CCCCCCCCCCCCCCN` [Tretradecylamine], in [1] (setting [37]), the Ki stood at 1 ± 0.03 µM.

As to `O=C(Cc1cccc(Br)c1)NC1CCN(Cc2ccc([18F])cc2)CC1` [[^18F]FBPBPA, N-[1-(4′-[^18F]fluorobenzyl)piperidin-4-yl]-3-bromophenylacetamide], in [34], the “receptor-specific uptake of the tracer in the brain” value is ~ 60% and the “receptor-specific uptake of the tracer in the tumor” value is ~ 25%.

Take `C[C@@H]1CN(CCCn2c3ccccc3c3ccccc32)C[C@H](C)N1` [rimcazole]: the “activation of caspases 3/7” value in series [35] was “not found to activate”; in [36] it was “activate”.
